From PubChem BioAssay (NCI) come the findings set out here.

Holding throughout (test): NCI-60 cell line screen, 48 h
Assay [1] concerns MDA-N.
The subject of assay [2] is OVCAR-5 ovarian.
Assay [3] concerns PC-3 prostate.
Assay [4] relates to UACC-257 melanoma.
The subject of assay [5] is SF-295 CNS.

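Interpolation was linear, between the two tested concentrations surrounding the appropriate level; five concentrations were tested over 48 hours in 96-well plates. GI50: concentration for 50% inhibition of growth. TGI: concentration producing complete growth inhibition.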

Consider `Cc1cccc(N=NC(=O)NNc2cccc(C)c2C)c1C`, for which the TGI in assay [1], in assay [2], in assay [3] and in assay [4] was above 100 µM each time.
For `Cc1c(S(=O)(=O)/N=C(\NO)Nc2ccc(Cl)c(Cl)c2)sc2ccc(Cl)cc12`, the TGI amounted to 34.8 µM in assay [1]; 38.2 µM in assay [2]; 36.7 µM in assay [3]; 33.6 µM in assay [5]; 37.6 µM in assay [4].
As for `NC(N)=NCCC[C@H](N)C(=O)NCC(=O)N[C@@H](CC(=O)O)c1ncc(NC(=O)C(F)(F)F)o1`, the TGI in assay [2], in assay [3], in assay [5] and in assay [4] was above 25 µM in each case.
Regarding `CCOC(=O)C(=Cc1[nH]c2ccccc2c1-c1c[nH]c2ccccc12)C(=O)OCC`, the TGI worked out at 26.5 µM in assay [1]; 30.3 µM in assay [2]; 25 µM in assay [3]; 25.3 µM in assay [5]; 23.8 µM in assay [4].
With `COc1ccc(C2OC[C@H]3O[C@@H](OCc4ccccc4)[C@H](O)[C@@H](O)[C@@H]3O2)cc1` (stereo partly drawn), the TGI in assay [1], in assay [2], in assay [3], in assay [5] and in assay [4] was above 100 µM throughout.
As to `Cn1cc(NC(=O)c2cc(NC(=O)CN=C(N)N)cn2C)cc1C(=O)NCCC(=N)N`, the TGI in assay [1], in assay [2], in assay [3], in assay [5] and in assay [4] was above 100 µM each time.
As to `O=C(NI1OC(=O)c2ccccc21)c1ccc(Cl)cc1`, the TGI in assay [2], in assay [3], in assay [5] and in assay [4] was above 100 µM each time.
Take `O=c1[nH]nc(-c2ccccc2)c2[nH]c3c4ccccc4ccc3c12`: the TGI was 0.545 µM in assay [1], above 100 µM in assay [3] and above 100 µM in assay [4].
Regarding `O=C(c1ccc(N=Cc2ccccc2O)cc1)c1ccc(N=Cc2ccccc2O)cc1`, the TGI in assay [2], in assay [3] and in assay [5] was above 100 µM each time.
For the compound `CC(=O)OC(/C=C/c1ccccc1)=C(OC(C)C)/C1=C(\c2ccccc2)SCCCSC1=O`, the TGI in assay [2], in assay [3], in assay [5] and in assay [4] was above 100 µM in each case.
On to `N=C(N)c1ccc(C(NC(=O)CNS(=O)(=O)c2ccc3ccccc3c2)P(=O)(Oc2ccccc2)Oc2ccccc2)cc1` (stereo not drawn), for which the TGI in assay [1], in assay [2], in assay [3] and in assay [4] was above 100 µM in each case.
Take `NN/C(=N\S(=O)(=O)c1cc2ccccc2s1)Nc1ccc(Cl)cc1`: the TGI in assay [2] was 48.2 µM; in assay [3], 62.4 µM; in assay [5], 43.2 µM; in assay [4], 37.3 µM.
In the same order, the values of `O=C1C=C(C2=CC(=O)C(=O)c3ccccc32)c2ccccc2C1=O` are 44.2 µM, 37.3 µM, 66.5 µM and above 100 µM.
Turning to `C=CC(CCc1ccc(C(=O)OCC)cc1)c1c(N)nc(N)[nH]c1=O` (stereo not drawn), the TGI in assay [1], in assay [3], in assay [5] and in assay [4] was above 100 µM each time.
As to `CCOP(C)(=O)C(N)Cc1ccc(OC)c(OC)c1` (stereo not drawn), the TGI in assay [1], in assay [3] and in assay [5] was above 100 µM throughout.
Regarding `CCOc1cn(C2CC(O)C(CO)O2)c(=O)[nH]c1=O` (stereo not drawn), the TGI in assay [1], in assay [2], in assay [3] and in assay [4] was above 100 µM throughout.
With `O=C(O)c1ccc([N+](=O)[O-])c2cc3cnccc3nc12`, the TGI was 51.3 µM in assay [1], 76.9 µM in assay [2], 34.6 µM in assay [3] and above 100 µM in assay [5].
For the compound `CNc1ccc(C(=O)CC(O)CCC(C)C2OC(=O)CC(O)CC(=O)CC(O)CC(O)CC(O)CC(O)CC3(O)CC(O)C(C(=O)OC)C(CC(O[C@@H]4O[C@H](C)[C@@H](O)[C@H](N)[C@@H]4O)/C=C/C=C/C=C/C=C/C=C/C=C/C=C/C2C)O3)cc1` (stereo partly drawn), the figures for the GI50 in assay [2], in assay [5] and in assay [4] were 3.7 µM, 2.63 µM and 1.45 µM, respectively. The TGI in assay [2] was above 100 µM; in assay [5], 9.67 µM; in assay [4], 3.18 µM.
As for `O=C1CC(=Nc2ccc(Cl)cc2)C(c2ccccc2)N1c1ccccc1` (stereo not drawn), the TGI in assay [1] was 10.8 µM; in assay [3] it was above 100 µM; in assay [5] it was above 100 µM; in assay [4], above 100 µM.
On to `COc1cc(C(=O)N(Cc2cccnc2)C(=S)N(Cc2cccnc2)C(=O)c2cc(OC)c(OC)c(OC)c2)cc(OC)c1OC`, for which the TGI in assay [1], in assay [2], in assay [5] and in assay [4] was above 100 µM each time.
